Data from PMC3534098 (PLoS ONE, 2012).

Test system: M. bovis BCG resistant mutants
Type: cell-based, Mycobacterium bovis BCG

SMILES	viability of M. bovis BCG mutants raised against other IP family members
Cc1ccc2nc(C)c(C(=O)NCc3cccs3)n2c1 [IP 1]	viable
Cc1ccc2nc(C)c(C(=O)NCc3ccc(C(F)(F)F)cc3)n2c1 [IP 3, 2,6-Dimethyl-N-(4-(trifluoromethyl)benzyl)imidazo[1,2-a]pyridine-3-carboxamide]	viable
Cc1ccc2nc(C)c(C(=O)NCc3ccc(Cl)nc3)n2c1 [IP 4, N-((6-Chloropyridin-3-yl)methyl)-2,6-dimethylimidazo[1,2-a]pyridine-3-carboxamide]	viable
